Experiments:
[1] = target: T1, msGFP-HaloTag® fusion localized to the mitochondrial outer membrane (Rhodococcus rhodochrous, UniProt P0A3G2, A155T/A167V/A172T/A224E/C128F/C176G/D78G/E160K/E257K/H272N/K175M/K195N/L47V/L88M/N227D/S58T/T264A/Y273L/Y87F); assay: HEK293T labeling and fluorescence microscopy; format: cell-based; settings: for labeling of mitochondria-localized HaloTag®-msGFP fusion: live HEK293T cells, nanomolar concentration (100 nM, 1 h); for concentration at which ligand can be deployed for cellular labeling: live cells; for cellular fluorescence intensity (JF ligand/msGFP ratio): HEK293T cells, 100 nM, same imaging conditions
T1 construct: expressed in transfected cells; host or cells: HEK293T, calcium phosphate transfection
From the text: Plasmid construction. HaloTag®, amplified from the pHTC HaloTag® CMV-neo Vector (Promega; G7711) and monomeric-superfolder green fluorescent protein (msGFP; lab stock), was fused to the mitochondrial targeting signal from OMP25,^28 interspacing flexible GS(GSS)4 linkers between each domain by PCR Splicing by Overlap Extension (SOE). This construct was subcloned into hSynapsin promoter bearing a copy of FUGW.^29 FUGW was a gift from David Baltimore (Addgene plasmid #14883; RRID: Addgene_14883).^48 This construct was designated as pF(UG) hSyn HaloTag®-TEV-4×GS-msGFP-mito.
HEK293T cell culture. HEK293T cells (ATCC) were passaged before 80% confluency by trypsinization (Corning; 25-053-CI) and trituration. The cell suspension was then plated on glass coverslips (Warner instruments; 64-0734, CS-18R17) coated with poly-D-lysine (Thermofisher; ICN10269491) and cultured in Dulbecco's Modified Eagle Medium (DMEM; ThermoFisher; 11965-118) supplemented with 10% v/v fetal bovine serum (FBS, Atlanta Biological) and penicillin/streptomycin (pen/strep; ThermoFisher; MT-30-001-CI) at 37° C. in a humidified 5% v/v CO2 environment following ATCC guidelines. These HEK293T cells were tested for mycoplasma contamination using the Universal Mycoplasma Detection Kit (ATCC; 30-1012K) and validated using Short Tandem Repeat profiling by ATCC (ATCC; 135-XV) within the previous year.
HEK293T labeling and fluorescence microscopy. […] For pulse-chase experiments, HEK293T cells were incubated with biotin-HaloTag® ligand (6; #G8281, Promega) at either 100 nM or 10 μM for 1 hour at 37° C. and chased with 100 nM of JANELIA FLUOR® (JF)549-HaloTag® ligand (2HTL). […] For imaging, the coverslips containing HEK293T cells were fixed with 4% paraformaldehyde in PBS at 37° C. for 10 min, washed with PBS (3×), and mounted on glass slides with ProLong Glass Antifade Mountant with NucBlue™ Stain (ThermoFisher; P36981). These cells were imaged using a Zeiss LSM 880 with Airyscan and a plan-apochromatic 63×/1.40 oil objective in Fast Airyscan mode. The same image acquisition settings were used for each trial and condition. Images were then processed with automatic Airyscan deconvolution settings.

HaloTag® protein (HT7) = target: T2, HaloTag® protein (HT7) (Rhodococcus rhodochrous, UniProt P0A3G2, A155T/A167V/A172T/A224E/C128F/C176G/D78G/E160K/E257K/H272N/K175M/K195N/L47V/L88M/N227D/S58T/T264A/Y273L/Y87F); assay: 1-Photon spectroscopy and quantum yield of HaloTag® conjugates; format: physicochemical; settings: absence vs presence of excess HaloTag® protein
T2 construct: 6xHis (N); T7 tag (gene 10 leader) (N); Xpress tag (N); made in house; host or cells: bacterial expression (vector pRSET-A)
Experimental: HaloTag® protein purification. The bacterial expression vector pRSET-A (Invitrogen) was used to recombinantly express HaloTag® protein (HT7; Promega).^45 The soluble 6×His-Tagged HaloTag® protein was affinity purified by immobilized metal affinity chromatography (IMAC) on a 5-mL Fast Flow HiTrap Sepharose 6 column (Cytiva) with a 0-200 mM imidazole elution gradient using an Avant Protein Purification System (ÄKTA). A280 peak fractions were pooled, concentrated by a spin concentrator, and dialyzed 3× into tris-buffered saline (TBS). The amino acid sequence of HaloTag® protein (HT7) expressed from pRSET-A is SEQ ID NO: 1.
1-Photon spectroscopy of HaloTag® ligands and HaloTag® conjugates. […] All measurements were taken at ambient temperature (22 ±2° C.). Absorption spectra were recorded on a Cary Model 100 spectrometer (Agilent) using 1-cm path length 1.0-mL quartz microcuvettes from Starna Cells. Fluorescence spectra were recorded on a Cary Eclipse fluorometer (Varian) using 1-cm path length 3.5-mL quartz cuvettes (Starna Cells). […] An aliquot of HaloTag® protein (1.5 equiv) was added, and the resulting mixture was incubated until a consistent absorbance signal was observed (60-120 min). To measure the fold-increase of absorbance upon HaloTag® binding, a “no HaloTag®” control experiment was performed where an equivalent volume of TBS blank was added in place of the protein. […]

T1 sequence (P0A3G2 other isoform, or with tags, fused parts or gaps with the stated changes): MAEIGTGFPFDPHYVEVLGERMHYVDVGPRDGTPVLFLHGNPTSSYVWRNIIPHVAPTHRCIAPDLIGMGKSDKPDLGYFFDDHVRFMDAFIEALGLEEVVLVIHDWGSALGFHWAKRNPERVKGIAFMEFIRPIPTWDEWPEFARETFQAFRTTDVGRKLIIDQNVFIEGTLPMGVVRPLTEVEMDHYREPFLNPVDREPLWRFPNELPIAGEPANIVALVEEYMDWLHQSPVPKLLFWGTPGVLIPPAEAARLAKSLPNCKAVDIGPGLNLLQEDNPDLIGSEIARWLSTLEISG
T2 sequence (P0A3G2 other isoform, or with tags, fused parts or gaps with the stated changes): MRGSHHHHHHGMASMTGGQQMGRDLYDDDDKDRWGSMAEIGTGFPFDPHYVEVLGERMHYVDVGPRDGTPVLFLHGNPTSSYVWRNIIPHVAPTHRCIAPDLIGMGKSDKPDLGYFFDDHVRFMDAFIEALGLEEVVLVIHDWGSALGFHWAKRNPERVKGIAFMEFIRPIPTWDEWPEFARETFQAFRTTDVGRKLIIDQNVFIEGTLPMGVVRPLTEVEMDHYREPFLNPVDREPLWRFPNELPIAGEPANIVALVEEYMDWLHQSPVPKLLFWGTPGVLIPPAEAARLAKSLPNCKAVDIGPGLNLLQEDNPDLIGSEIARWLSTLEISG

Molecule	labeling of mitochondria-localized HaloTag®-msGFP fusion [1]	concentration at which ligand can be deployed for cellular labeling [1]	fluorogenicity upon conjugation to the HaloTag® protein (fold-increase of absorbance) (HaloTag® protein (HT7))	cellular fluorescence intensity (JF ligand/msGFP ratio) [1]
C[Si]1(C)c2cc(N3CC(F)C3)ccc2C2(OC(=O)c3ccc(C(=O)NCCOCCOCCCCCCCl)cc32)c2ccc(N3CC(F)C3)cc21 [5HTL, JF635-HaloTag® ligand, reference compound]	labeled the mitochondria in live cells			
C[Si]1(C)C2=CC(=[N+]3CC(C(=O)NCCOCCOCCNC(=O)CCCC[C@@H]4SC[C@@H]5NC(=O)N[C@@H]54)C3)C=CC2=C(c2cc(C(=O)NCCOCCOCCCCCCCl)ccc2C(=O)[O-])c2ccc(N3CCC3)cc21 (stereo partly shown) [compound 14, Biotin-JF646-HaloTag® ligand]	labeled the mitochondria in live cells	100 nM	2.5 ×	
C[Si]1(C)C2=CC(=[N+]3CC(F)(C(=O)NCCOCCOCCNC(=O)CCCC[C@@H]4SC[C@@H]5NC(=O)N[C@@H]54)C3)C=CC2=C(c2cc(C(=O)NCCOCCOCCCCCCCl)ccc2C(=O)[O-])c2ccc(N3CC(F)C3)cc21 (stereo partly shown) [compound 15, Biotin-JF635-HaloTag® ligand]	labeled the mitochondria in live cells	100 nM	14.7 ×	lower fluorescence intensity than 5HTL
Biotin-JF549-HaloTag® ligand [compound 12]	did not show appreciable cellular labeling			poor labeling

Reference: patent US20240239818A1, “COMPOUNDS AND COMPOSITIONS COMPRISING FLUOROPHORES FOR USE IN VISUALIZATION AND PURIFICATION OR MANIPULATION” (priority 2022, published 2024)
